The record followed here is patent publication US9783532B2, “Molecules having certain pesticidal utilities, and intermediates, compositions, and processes related thereto” (Dow AgroSciences LLC, priority 2013, dated 2017).

Experiment [1] deals with Beet Armyworm (Spodoptera exigua) ("BAW"). Kind of experiment: Bioassay on beet armyworm (BAW), 128-well diet tray assay. Format: in vivo. As to conditions: 168 h, 50 μg/cm^2 on artificial diet, second instar BAW larvae, 25° C., five to seven days, average of eight wells, read-out: BAW % Control (or Mortality) rating. The method in brief: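 Percent mortality, averaged across eight wells, was read after five to seven days at 25° C. under 14:10 light-dark. Each well held one to five second-instar larvae on artificial diet that had been treated with 50 μg/cm^2 compound in 90:10 acetone-water and dried.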

Experiment [2] has as its system Cabbage Looper (Trichoplusia ni) ("CL"). Description: Bioassay on cabbage looper (CL), 128-well diet tray assay. Format: in vivo. Conditions: 168 h, 50 μg/cm^2 on artificial diet, second instar CL larvae, 25° C., five to seven days, average of eight wells, read-out: CL % Control (or Mortality) rating. Put shortly:
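Percent mortality, averaged across eight replicate wells, was read after five to seven days at 25 °C under a 14:10 photoperiod. Each well held one to five second-instar T. ni on diet carrying a dried 50 μg/cm^2 dose applied in acetone-water 90:10.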

What is called mortality is the share of the test organisms that died. On to `CCc1ccccc1N1C(=O)CS/C1=N\C(=O)NCc1ccc(-c2ncn(-c3ccc(OC(F)(F)F)cc3)n2)cc1` [P2, P532, (Z)-1-(3-(2-ethylphenyl)-4-oxothiazolidin-2-ylidene)-3-(4-(1-(4-(trifluoromethoxy)phenyl)-1H-1,2,4-triazol-3-yl)benzyl)urea], for which the mortality at 50 µg/cm2 in experiment [1] and in experiment [2] was 50 to 100% throughout.

With `CC(C)c1cc(F)ccc1N1C(=O)CS/C1=N\C(=O)NCc1ccc(-c2ncn(-c3ccc(OC(F)(F)F)cc3)n2)cc1` [P3, P1172, (Z)-1-(3-(4-fluoro-2-isopropylphenyl)-4-oxothiazolidin-2-ylidene)-3-(4-(1-(4-(trifluoromethoxy)phenyl)-1H-1,2,4-triazol-3-yl)benzyl)urea], the mortality at 50 µg/cm2 in experiment [1] and in experiment [2] was 50 to 100% each time.

As for `Cc1ccc(N2C(=O)CS/C2=N\C(=O)NCc2ccc(-c3ncn(-c4ccc(OC(F)(F)F)cc4)n3)cc2)c(C(C)C)c1` [P5, (Z)-1-(3-(2-isopropyl-4-methylphenyl)-4-oxothiazolidin-2-ylidene)-3-(4-(1-(4-(trifluoromethoxy)phenyl)-1H-1,2,4-triazol-3-yl)benzyl)urea], the mortality at 50 µg/cm2 in experiment [1] and in experiment [2] was 50 to 100% throughout.

As for `COc1ccc(N2C(=O)CS/C2=N\C(=O)NCc2ccc(-c3ncn(-c4ccc(OC(F)(F)F)cc4)n3)cc2)c(C)c1` [P6, (Z)-1-(3-(4-methoxy-2-methylphenyl)-4-oxothiazolidin-2-ylidene)-3-(4-(1-(4-(trifluoromethoxy)phenyl)-1H-1,2,4-triazol-3-yl)benzyl)urea], the mortality at 50 µg/cm2 in experiment [1] and in experiment [2] was 50 to 100% each time.

With `CCc1ccc(C)cc1N1C(=O)CS/C1=N\C(=O)NCc1ccc(-c2ncn(-c3ccc(OC(F)(F)F)cc3)n2)cc1` [P7, (Z)-1-(3-(2-ethyl-5-methylphenyl)-4-oxothiazolidin-2-ylidene)-3-(4-(1-(4-(trifluoromethoxy)phenyl)-1H-1,2,4-triazol-3-yl)benzyl)urea], the mortality at 50 µg/cm2 in experiment [1] and in experiment [2] was 50 to 100% in each case.

With `CCCc1ccc(C)cc1N1C(=O)CS/C1=N\C(=O)NCc1ccc(-c2ncn(-c3ccc(OC(F)(F)F)cc3)n2)cc1` [P8, P852, (Z)-1-(3-(5-methyl-2-propylphenyl)-4-oxothiazolidin-2-ylidene)-3-(4-(1-(4-(trifluoromethoxy)phenyl)-1H-1,2,4-triazol-3-yl)benzyl)urea], the mortality at 50 µg/cm2 in experiment [1] and in experiment [2] was 50 to 100% each time.

For the molecule `CC(C)c1ccccc1N1C(=O)CS/C1=N\C(=O)NCc1ccc(-c2ncn(-c3ccc(C(F)(F)F)cc3)n2)cc1` [P14, (Z)-1-(3-(2-isopropylphenyl)-4-oxothiazolidin-2-ylidene)-3-(4-(1-(4-(trifluoromethyl)phenyl)-1H-1,2,4-triazol-3-yl)benzyl)urea], the mortality at 50 µg/cm2 in experiment [1] and in experiment [2] was 50 to 100% in each case.

With `Cc1ccc(N2C(=O)CS/C2=N\C(=O)NCc2ccc(-c3ncn(-c4ccc(C(F)(F)F)cc4)n3)cc2)c(C(C)C)c1` [P15, (Z)-1-(3-(2-isopropyl-4-methylphenyl)-4-oxothiazolidin-2-ylidene)-3-(4-(1-(4-(trifluoromethyl)phenyl)-1H-1,2,4-triazol-3-yl)benzyl)urea], the mortality at 50 µg/cm2 in experiment [1] and in experiment [2] was 50 to 100% in each case.

In the case of `Cc1ccc(C(C)C)c(N2/C(=N/C(=O)NCCc3ccc(-c4ncn(-c5ccc(OC(F)(F)F)cc5)n4)cc3)SCC2C)c1` (stereo not drawn) [P58, (Z)-1-(3-(2-isopropyl-5-methylphenyl)-4-methylthiazolidin-2-ylidene)-3-(4-(1-(4-(trifluoromethoxy)phenyl)-1H-1,2,4-triazol-3-yl)phenethyl)urea], the mortality at 50 µg/cm2 in experiment [1] and in experiment [2] was 50 to 100% throughout.
